Test results reported in US8071768B2, “Alkylquinoline and alkylquinazoline kinase modulators” (Janssen Pharmaceutica, N.V., priority 2005, dated 2011).

target: T1, TrkB (Homo sapiens, UniProt Q16620); experiment: Trk B Fluorescence Polarization Kinase Assay; type: biochemical; conditions: uncertainty ±10%
T1 construct: purchased Upstate 14-507M
Protocol: Trk B Fluorescence Polarization Kinase Assay (TrkB IC50 Data)
The compounds of the present invention are also specific inhibitors of TrkB. Selection of preferred compounds of Formula I for use as TrkB inhibitors was performed in the following manner. The TrkB assay utilized the fluorescein-labeled phosphopeptide and the anti-phosphotyrosine antibody included in the Panvera Phospho-Tyrosine Kinase Kit (Green) supplied by Invitrogen. When TrkB phosphorylated poly Glu4Tyr, the fluorescein-labeled phosphopeptide was displaced from the anti-phosphotyrosine antibody by the phosphorylated poly Glu4Tyr, thus decreasing the FP value. The TrkB kinase reaction was incubated at room temperature for 30 minutes under the following conditions: 50 nM TrkB (Upstate, catalog # 14-507M), 20 ug/mL poly Glu4Tyr, 150 uM ATP, 5 mM MgCl2, 1% compound in DMSO. The kinase reaction was stopped with the addition of EDTA. The fluorescein-labeled phosphopeptide and the anti-phosphotyrosine antibody were added and incubated for 30 minutes at room temperature. Data points were an average of triplicate samples. Inhibition and IC50 data analysis were done with GraphPad Prism using a non-linear regression fit with a multiparamater, sigmoidal dose-response (variable slope) equation.

T1 sequence (Q16620 32-822): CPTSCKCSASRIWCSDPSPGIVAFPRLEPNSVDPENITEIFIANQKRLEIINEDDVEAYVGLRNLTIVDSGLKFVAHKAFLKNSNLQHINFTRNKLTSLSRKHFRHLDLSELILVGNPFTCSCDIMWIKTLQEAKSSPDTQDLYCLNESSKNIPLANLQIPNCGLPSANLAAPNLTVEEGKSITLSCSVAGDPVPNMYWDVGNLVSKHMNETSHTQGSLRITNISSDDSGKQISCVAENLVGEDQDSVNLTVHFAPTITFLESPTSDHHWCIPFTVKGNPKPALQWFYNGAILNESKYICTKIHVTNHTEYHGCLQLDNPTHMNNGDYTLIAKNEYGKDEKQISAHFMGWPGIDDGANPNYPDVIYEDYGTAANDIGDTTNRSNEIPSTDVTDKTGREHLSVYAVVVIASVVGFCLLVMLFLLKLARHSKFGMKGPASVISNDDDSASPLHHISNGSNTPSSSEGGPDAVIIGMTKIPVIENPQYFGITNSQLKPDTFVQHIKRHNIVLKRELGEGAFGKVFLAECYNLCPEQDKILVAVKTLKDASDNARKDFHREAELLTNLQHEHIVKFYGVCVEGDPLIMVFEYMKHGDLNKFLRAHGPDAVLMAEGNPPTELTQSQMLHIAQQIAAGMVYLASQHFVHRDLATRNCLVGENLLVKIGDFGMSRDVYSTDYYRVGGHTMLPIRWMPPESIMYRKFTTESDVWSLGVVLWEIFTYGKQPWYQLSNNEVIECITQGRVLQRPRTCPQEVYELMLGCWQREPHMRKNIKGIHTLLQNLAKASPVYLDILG

| IC50 | SMILES |
| --- | --- |
| 2.2 µM | CCOc1ccc(NC(=O)N2CCC(c3ncnc4cc(OC)c(OC)cc34)CC2)cc1 [Compound 44, 4-(6,7-Dimethoxy-quinazolin-4-yl)-piperidine-1-carboxylic acid (4-ethoxy-phenyl)-amide] |
| 6.5 µM | COc1cc2ncnc(C3CCN(C(=O)Nc4ccccc4)CC3)c2cc1OC [Compound 45, 4-(6,7-Dimethoxy-quinazolin-4-yl)-piperidine-1-carboxylic acid phenylamide] |
| 18.3 µM | COc1cc2ncnc(C3CCN(C(=O)Nc4ccc(C(F)(F)F)cc4)CC3)c2cc1OC [Compound 46, 4-(6,7-Dimethoxy-quinazolin-4-yl)-piperidine-1-carboxylic acid (4-trifluoromethyl-phenyl)-amide] |
| 4 µM | COc1cc2ncnc(C3CCN(C(=O)Nc4ccc(Oc5ccccc5)cc4)CC3)c2cc1OC [Compound 47, 4-(6,7-Dimethoxy-quinazolin-4-yl)-piperidine-1-carboxylic acid (4-phenoxy-phenyl)-amide] |
| 6.6 µM | COc1cc2ncnc(C3CCN(C(=O)Nc4ccc(C)cc4)CC3)c2cc1OC [Compound 48, 4-(6,7-Dimethoxy-quinazolin-4-yl)-piperidine-1-carboxylic acid p-tolylamide] |
| 22.3 µM | COc1cc2ncnc(C3CCN(C(=O)Nc4ccc(Cl)cc4)CC3)c2cc1OC [Compound 49, 4-(6,7-Dimethoxy-quinazolin-4-yl)-piperidine-1-carboxylic acid (4-chloro-phenyl)-amide] |
| 0.5 µM | COc1cc2ncnc(C3CCN(C(=O)Nc4ccc(OC(F)(F)F)cc4)CC3)c2cc1OC [Compound 50, 4-(6,7-Dimethoxy-quinazolin-4-yl)-piperidine-1-carboxylic acid (4-trifluoromethoxy-phenyl)-amide] |
| 4 µM | COc1cc2ncnc(C3CCN(C(=O)Nc4ccc(OC(F)F)cc4)CC3)c2cc1OC [Compound 51, 4-(6,7-Dimethoxy-quinazolin-4-yl)-piperidine-1-carboxylic acid (4-difluoromethoxy-phenyl)-amide] |
| 1.2 µM | CCC(C)c1ccc(NC(=O)N2CCC(c3ncnc4cc(OC)c(OC)cc34)CC2)cc1 (stereo not drawn) [Compound 52, 4-(6,7-Dimethoxy-quinazolin-4-yl)-piperidine-1-carboxylic acid (4-sec-butyl-phenyl)-amide] |
| 1.1 µM | COc1cc2ncnc(C3CCN(C(=O)Nc4ccc(C(C)(C)C)cc4)CC3)c2cc1OC [Compound 53, 4-(6,7-Dimethoxy-quinazolin-4-yl)-piperidine-1-carboxylic acid (4-tert-butyl-phenyl)-amide] |
| 6.2 µM | COc1cc2ncnc(C3CCN(C(=O)NC4CCC(C(C)(C)C)CC4)CC3)c2cc1OC (stereo not drawn) [Compound 54, 4-(6,7-Dimethoxy-quinazolin-4-yl)-piperidine-1-carboxylic acid (4-tert-butyl-cyclohexyl)-amide] |
| 0.4 µM | COc1cc2ncnc(C3CCN(C(=O)Nc4ccc(OC(C)C)nc4)CC3)c2cc1OC [Compound 56, 4-(6,7-Dimethoxy-quinazolin-4-yl)-piperidine-1-carboxylic acid (6-isopropoxy-pyridin-3-yl)-amide] |
| 24.9 µM | COc1cc2ncnc(C3CCN(C(=O)Nc4ccc(N5CCCC5=O)cc4)CC3)c2cc1OC [Compound 57, 4-(6,7-Dimethoxy-quinazolin-4-yl)-piperidine-1-carboxylic acid [4-(2-oxo-pyrrolidin-1-yl)-phenyl]-amide] |
| > 42 µM | COc1cc2ncnc(C3CCN(C(=O)Nc4ccc(-c5cncnc5)cc4)CC3)c2cc1OC [Compound 58, 4-(6,7-Dimethoxy-quinazolin-4-yl)-piperidine-1-carboxylic acid (4-pyrimidin-5-yl-phenyl)-amide] |
| 13.9 µM | COc1cc2ncnc(C3CCN(C(=O)Nc4ccc(-c5ccco5)cc4)CC3)c2cc1OC [Compound 59, 4-(6,7-Dimethoxy-quinazolin-4-yl)-piperidine-1-carboxylic acid (4-furan-2-yl-phenyl)-amide] |
| 8.1 µM | COc1cc2ncnc(C3CCN(C(=O)Nc4ccc(-c5ccc(Cl)nc5)cc4)CC3)c2cc1OC [Compound 60, 4-(6,7-Dimethoxy-quinazolin-4-yl)-piperidine-1-carboxylic acid [4-(6-chloro-pyridin-3-yl)-phenyl]-amide] |
| 40.6 µM | COc1cc2ncnc(C3CCN(C(=O)Nc4ccc(C5=CCN(C(=O)OC(C)(C)C)CC5)cc4)CC3)c2cc1OC [Compound 61, 4-(4-{[4-(6,7-Dimethoxy-quinazolin-4-yl)-piperidine-1-carbonyl]-amino}-phenyl)-3,6-dihydro-2H-pyridine-1-carboxylic acid tert-butyl ester] |

| IC50 | SMILES |
| --- | --- |
| > 10 µM | COc1cc2ncnc(C3CCN(C(=O)Nc4ccc(C5=CCNCC5)cc4)CC3)c2cc1OC [Compound 62, 4-(6,7-Dimethoxy-quinazolin-4-yl)-piperidine-1-carboxylic acid [4-(1,2,3,6-tetrahydro-pyridin-4-yl)-phenyl]-amide] |
| > 42 µM | COc1cc2ncnc(C3CCN(C(=O)Nc4ccc(C5CCN(C(=O)OC(C)(C)C)CC5)cc4)CC3)c2cc1OC [Compound 63, 4-(4-{[4-(6,7-Dimethoxy-quinazolin-4-yl)-piperidine-1-carbonyl]-amino}-phenyl)-piperidine-1-carboxylic acid tert-butyl ester] |
| 37.8 µM | COc1cc2ncnc(C3CCN(C(=O)Nc4ccc(C5CCNCC5)cc4)CC3)c2cc1OC [Compound 64, 4-(6,7-Dimethoxy-quinazolin-4-yl)-piperidine-1-carboxylic acid (4-piperidin-4-yl-phenyl)-amide] |
| 0.5 µM | CC(C)Oc1ccc(NC(=O)N2CCC(c3ncnc4cc(OCCCNS(C)(=O)=O)ccc34)CC2)cc1 [Compound 65, 4-[7-(3-Methanesulfonylamino-propoxy)-quinazolin-4-yl]-piperidine-1-carboxylic acid (4-isopropoxy-phenyl)-amide] |
| > 42 µM | CS(=O)(=O)NCCCOc1ccc2c(C3CCN(C(=O)Nc4ccc(N5CCOCC5)cc4)CC3)ncnc2c1 [Compound 66, 4-[7-(3-Methanesulfonylamino-propoxy)-quinazolin-4-yl]-piperidine-1-carboxylic acid (4-morpholin-4-yl-phenyl)-amide] |
| 0.6 µM | CC(C)Oc1ccc(NC(=O)N2CCC(c3ncnc4cc(OCCCN5CCCC5=O)ccc34)CC2)cc1 [Compound 67, 4-{7-[3-(2-Oxo-pyrrolidin-1-yl)-propoxy]-quinazolin-4-yl}-piperidine-1-carboxylic acid (4-isopropoxy-phenyl)-amide] |
| 0.15 µM | COc1cc2ncnc(C3CCN(C(=O)Nc4ccc(OC5CCCC5)nc4)CC3)c2cc1OC [Compound 69, 4-(6,7-Dimethoxy-quinazolin-4-yl)-piperidine-1-carboxylic acid (6-cyclopentyloxy-pyridin-3-yl)-amide] |
| 2.7 µM | COc1cc2ncnc(C3CCN(C(=O)Nc4ccc(N5CCCCCC5)cc4)CC3)c2cc1OC [Compound 70, 4-(6,7-Dimethoxy-quinazolin-4-yl)-piperidine-1-carboxylic acid (4-azepan-1-yl-phenyl)-amide] |
| 6.1 µM | COc1cc2ncnc(C3CCN(C(=O)Nc4ccc(N5CCCCC5)c(Cl)c4)CC3)c2cc1OC [Compound 71, 4-(6,7-Dimethoxy-quinazolin-4-yl)-piperidine-1-carboxylic acid (3-chloro-4-piperidin-1-yl-phenyl)-amide] |
| > 20 µM | O=C(Nc1ccc(N2CCOCC2)cc1)N1CCC(c2ncnc3cc(OCCCN4CCCCC4)ccc23)CC1 [Compound 75] |
| > 20 µM | O=C(Nc1ccc(N2CCOCC2)cc1)N1CCC(c2ncnc3cc(OCCCO)ccc23)CC1 [Compound 77, 4-[7-(3-Hydroxy-propoxy)-quinazolin-4-yl]-piperidine-1-carboxylic acid (4-morpholin-4-yl-phenyl)-amide] |
| 18.4 µM | COCCCOc1ccc2c(C3CCN(C(=O)Nc4ccc(N5CCOCC5)cc4)CC3)ncnc2c1 [Compound 78, 4-[7-(3-Methoxy-propoxy)-quinazolin-4-yl]-piperidine-1-carboxylic acid (4-morpholin-4-yl-phenyl)-amide] |
| 0.3 µM | CC(C)Oc1ccc(NC(=O)N2CCC(c3ncnc4cc(OCCN5CCOC5=O)ccc34)CC2)cc1 [Compound 79, 4-{7-[2-(2-Oxo-oxazolidin-3-yl)-ethoxy]-quinazolin-4-yl}-piperidine-1-carboxylic acid (4-isopropoxy-phenyl)-amide] |
| > 20 µM | CN1CCN(CCCOc2ccc3c(C4CCN(C(=O)Nc5ccc(N6CCOCC6)c(F)c5)CC4)ncnc3c2)CC1 [Compound 81, 4-{7-[3-(4-Methyl-piperazin-1-yl)-propoxy]-quinazolin-4-yl}-piperidine-1-carboxylic acid (3-fluoro-4-morpholin-4-yl-phenyl)-amide] |
| 0.4 µM | CN1CCN(CCCOc2ccc3c(C4CCN(C(=O)Nc5ccc(OC6CCCC6)nc5)CC4)ncnc3c2)CC1 [Compound 82, 4-{7-[3-(4-Methyl-piperazin-1-yl)-propoxy]-quinazolin-4-yl}-piperidine-1-carboxylic acid (6-cyclopentyloxy-pyridin-3-yl)-amide] |
| 0.8 µM | O=C1CCCN1CCOc1ccc2c(C3CCN(C(=O)Nc4cnc(N5CCCC5)nc4)CC3)ncnc2c1 [Compound 84, 4-{7-[2-(2-Oxo-pyrrolidin-1-yl)-ethoxy]-quinazolin-4-yl}-piperidine-1-carboxylic acid (2-pyrrolidin-1-yl-pyrimidin-5-yl)-amide] |
